# Laboratory results from US5011828A, “Immunostimulating guanine derivatives, compositions and methods” (priority 1988, dated 1991).
# What was measured:
# [1] = tested on: murine lymphocytes (sheep red blood cells as antigen); assay: Antigen-specific adjuvanticity: direct anti-SRBC plaque forming cells, murine system; type: cell-based, mouse; details: for Average 1 Log Plaque Values: Table 9, murine, * = single study
# Text: ^1 Adjuvanticities against sheep red blood cells [SRBC] measured in
# direct plaqueforming cells per culture of lymphocytes from the mouse
# strains shown. Details of the procedure are provided in the Materials and
# Methods Section. Standard errors from the enumerated mean values are show
# A large number of comparisons of adjuvanticity using human and murine lymphocytes as the source of leukocytes have been carried out using compounds of the present invention, as well as with new compounds excluded from the present invention. […] Interstudy comparisons are however useful for showing trends and large differences. Tables 5, 6 and 7, hereinafter, provide exemplary data from such studies in which only the activity at the peak concentration is shown for each compound and the results for the controls are omitted.
# Lymphocyte cultures. The serum-containing culture medium water prepared to contain the following per 100 milliliters: 91.9 milliliters RPMI 1640 (Flow Laboratories, Inc., Rockville, Md.), 0.1 milliliters of 100×glutamine, 1.0 milliliter of 100×sodium pyruvate, 1 0 milliliter of 50×nonessential amino acids, 1.0 milliliter of water containing 10^4 units of penicillin G and 10^4 micrograms of streptomycin, and 5.0 milliliters of a supportive lot of fetal calf serum (FCS). These ingredients were admixed to apparent homogeneity. Spleen cell suspensions and populations enriched for splenic B cells were prepared as described in Goodman et al., J. Immunol., 121:1905 (1978).
# For evaluation of the primary humoral immune response to sheep erythrocytes (SRBC), 5×10^6 to 10^7 murine spleen cells were cultured in 1.0 milliliter of 5% FCS-containing medium for 4 or 5 days in the presence and absence of immunogen. Cells were incubated in culture trays (Costar, Cambridge, Mass.) at 37° C. in a humidified atmosphere of 10% CO2 in air using tissue culture boxes (CBS Scientific, Del Mar, Calif.) that were rocked at a frequency of 7 cycles per minute. Pooled SRBC are available from the Colorado Serum Co., Denver Colo.
# (§1) Assay of plaque forming cells (PFC). PFC secreting antibodies against SRBC were evaluated after 4 or 5 days of culture using a modification of the hemolytic plaque assay of Jerne and Nordin, Science, 140:405 (1963). The cells were brought up in complete medium before plaquing; they were plaqued in standard low Mr agarose (Bio-Rad Laboratories, Richmond Calif.), and were incubated in SRBC-absorbed guinea pig complement for one hour after a 1.5 hour incubation without complement.
# murine spleen cells = assay: Mitogenicity: [3H]TdR uptake, murine system; type: cell-based, mouse; details: Table 2
# [2] = tested on: human peripheral blood lymphocytes (sheep red blood cells as antigen); assay: Antigen-specific adjuvanticity: direct anti-SRBC plaque forming cells, human system; type: cell-based
# Experimental: ^1 Studies were carried in a manner similar to those of Table 1,
# except that a human lymphocyte preparation was used.
# The results shown in Table 7, below, were obtained similarly to those discussed above, but using human lymphocytes. Some of those studies utilized lymphocytes from more than one individual, and are therefore reported with multiple entries.
# Human peripheral blood lymphocytes (PBL) were prepared from normal heparinized venous blood by Ficoll-diatrizoate density gradient centrifugation. PBL were depleted of suppressor T cells bearing the histamine type 2 receptor by adhering them to the surfaces of histamine-rabbit serum albumin-coated plastic petri dishes (Cell-ect No. 2 kit; Seragen, Boston, Mass.) and by recovering the nonadherent cells by panning as described by Wysocki and Sato, Proc. Natl. Acad. Sci. USA, 75:2844 (1978) and modified by Cavagnaro and Osband, Biotechniques, January/February:30 (1983).
# The tissue culture medium employed in these studies for human lymphocytes was prepared as follows: One hundred milliliters (ml) contained 87.9 ml RPMI 1640 (Flow Laboratories, Rockville, Md.), 0.1 ml 100×glutamine,1.0 ml of 1.0 M HEPES buffer (Microbilogical Associates, Betheseda, Md.), 1.0 ml of water containing 10^4 U of penicillin G and 10^4 micrograms of streptomycin, and 10 ml of fresh autologous heat-inactivatedplasma. For evaluation of the primary humoral immune response to SRBC, lymphoid cells prepared as above were cultured at a density of 2×10^6 /ml in a volume of 1.0 ml containing 5×10^6 SRBC as antigen (Colorado Serum Co., Denver, Colo.) together with IL-2 (a partially purified preparation of human IL-2 that was free of interferon-gamma activity was obtained from Electro-Nucleonics, Inc., Silver Spring, Md.) and the guanine nucleoside derivative.
# as §1
# [3] = Table 6, murine system, at peak concentration
# [4] = Table 5, murine system, at peak concentration
# [5] = Table 7, later studies, single preparation
smiles,measurement,setting,value
"C=CCSc1nc2c(=O)[nH]c(N)nc2n1[C@@H]1O[C@H](CO)[C@@H](O)[C@H]1O [compound 22300, 8-(2-propenylmercapto)guanosine]",Direct Anti-SRBC PFC/Culture,"[1]; Table 1, CBA/CaJ, 3 × 10^-4 M",870 ± 70 PFC/Culture
same,Direct Anti-SRBC PFC/Culture,"[1]; Table 1, CBA/CaJ, 10^-3 M",490 ± 133 PFC/Culture
same,Direct Anti-SRBC PFC/Culture,"[1]; Table 1, CBA/CaJ, 10^-4 M",420 ± 105 PFC/Culture
same,"adjuvanticity, in words",[1]; murine system,about equal adjuvanticity to that of 8MGuo
same,[3H] TdR Uptake,murine spleen cells; 10^-3 M,"16,400 ± 1130 cpm/culture"
same,[3H] TdR Uptake,murine spleen cells; 10^-4 M,2700 ± 130 cpm/culture
"C=CCn1c(=S)n([C@@H]2O[C@H](COC(C)=O)[C@@H](OC(C)=O)[C@H]2OC(C)=O)c2nc(N)[nH]c(=O)c21 [compound 22360, 7-(2-Propenyl)-8-thioxo-2',3',5'-triacetylguanosine]",Peak Direct anti-SRBC PFC/Culture,"[2]; Table 7, second group, person a",925 PFC/Culture
same,Peak Direct anti-SRBC PFC/Culture,"[2]; Table 7, second group, person b",6008 PFC/Culture
same,Peak Direct anti-SRBC PFC/Culture,"[2]; Table 7, second group, person c",5050 PFC/Culture
same,Average 1 Log Plaque Values,"[2]; Table 9, human, * = single study","38,508 ± 26,802 per micromole"
same,Peak Direct anti-SRBC PFC/Culture,[1]; [3],743 ± 48 PFC/Culture
same,Direct Anti-SRBC PFC/Culture,"[1]; Table 8, 1 × 10^-5 M",1176 PFC/Culture
same,Average 1 Log Plaque Values,[1],"53,695 ± 28,444 per micromole"
"CCCCCCn1c(=O)n([C@@H]2O[C@H](CO)[C@@H](O)[C@H]2O)c2nc(N)[nH]c(=O)c21 [compound 23924, 7-Hexyl-8-oxoguanosine]",Direct Anti-SRBC PFC/Culture,"[1]; Table 8, 1 × 10^-5 M",243 PFC/Culture
"CCCCCCCCCCn1c(=O)n([C@@H]2O[C@H](CO)[C@@H](O)[C@H]2O)c2nc(N)[nH]c(=O)c21 [compound 23894, 7-Decyl-8-oxoguanosine]",Peak Direct anti-SRBC PFC/Culture,[1]; [4],90 ± 15 PFC/Culture
"C=CCn1c(=S)n(C2OC(COC(=O)c3ccccc3)C3OC(C)(C)OC32)c2nc(N)nc(OC(=O)c3ccccc3)c21 (stereo not shown) [compound 23314, 7-(2-Propenyl)-6,5'-dibenzoyl-2',3'-O-isopropylidene-8-thioxoguanosine]",Peak Concentration,"[1]; Table 6, murine system",10^-5 moles per liter
same,Peak Direct anti-SRBC PFC/Culture,"[1]; Table 6, study b",243 ± 19 PFC/Culture
"C=CCn1c(=S)n([C@@H]2O[C@H](COC(C)=O)[C@H]3OC(C)(C)O[C@H]32)c2nc(N)[nH]c(=O)c21 [compound 23287, 5'-Acetyl-7-(2-propenyl)-2',3'-O-isopropylidene-8-thioxoguanosine]",Peak Direct anti-SRBC PFC/Culture,"[1]; Table 6, first study (note 4)",1650 ± 63 PFC/Culture
same,Peak Direct anti-SRBC PFC/Culture,"[1]; Table 6, second study (note 4)",1675 ± 298 PFC/Culture
same,"adjuvanticity, in words",[1]; murine system,about twice that exhibited by 8-bromoguanosine (8BrGuo)
"CC=CCSc1nc2c(=O)[nH]c(N)nc2n1[C@@H]1O[C@H](CO)[C@@H](O)[C@H]1O [compound 22435, 8-(2-Butenylmercapto)guanosine]",Direct Anti-SRBC PFC/Culture,"[1]; Table 1, C57BL/6J, 3 × 10^-4 M",9130 ± 1110 PFC/Culture
same,Direct Anti-SRBC PFC/Culture,"[1]; Table 1, C57BL/6J, 10^-3 M","12,080 ± 470 PFC/Culture"
same,Direct Anti-SRBC PFC/Culture,"[1]; Table 1, CBA/CaJ, 3 × 10^-4 M",582 ± 52 PFC/Culture
same,Direct Anti-SRBC PFC/Culture,"[1]; Table 1, CBA/CaJ, 10^-3 M",607 ± 57 PFC/Culture
same,Direct Anti-SRBC PFC/Culture,"[1]; Table 1, CBA/CaJ, 10^-4 M",247 ± 38 PFC/Culture
same,"adjuvanticity, in words",[1]; murine system,"greater than that of the longer 8-cinnamyl derivative (22359), but less than that of the 8-mercapto compound (8MGuo)"
same,[3H] TdR Uptake,murine spleen cells; 3 × 10^-4 M,8800 ± 200 cpm/culture
same,[3H] TdR Uptake,murine spleen cells; 10^-3 M,"11,200 ± 202 cpm/culture"
same,[3H] TdR Uptake,murine spleen cells; 10^-4 M,4500 ± 120 cpm/culture
"Nc1nc2c(c(=O)[nH]1)n(CC=Cc1ccccc1)c(=O)n2[C@@H]1O[C@H](CO)[C@@H](O)[C@H]1O [compound 22827, 7-[(3-Phenyl)-2-propenyl]-8-oxoguanosine]",Peak Direct anti-SRBC PFC/Culture,[2]; [5],2577 ± 300 PFC/Culture
same,Peak Direct anti-SRBC PFC/Culture,[1]; [4],1357 ± 226 PFC/Culture
same,"adjuvanticity higher / more active than comparison compound of U.S. Pat. No. 4,643,992","[1]; murine system (Table 5), vs 7m8oGuo or compounds of that patent",more than 100%
"CCCn1c(=O)n([C@@H]2O[C@H](CO)[C@@H](O)[C@H]2O)c2nc(N)[nH]c(=O)c21 [compound 24069, 7-Propyl-8-oxoguanosine]",Direct Anti-SRBC PFC/Culture,"[1]; Table 8, 1 × 10^-5 M",1306 PFC/Culture
"C=CCn1c(=S)n([C@@H]2O[C@H](COC(=O)c3ccccc3)[C@H]3OC(C)(C)O[C@H]32)c2nc(NC(=O)c3ccccc3)[nH]c(=O)c21 [compound 23350, 7-(2-Propenyl)-2-N,5'-O-dibenzoyl-2',3'-O-isopropylidene-8-thioxoguanosine hemihydrate]",Peak Direct anti-SRBC PFC/Culture,"[1]; Table 6, study c",45 ± 8 PFC/Culture
same,"adjuvanticity, in words",[1]; murine system,substantially inactive at the concentrations utilized
"Nc1nc2c(nc(Br)n2[C@@H]2O[C@H](CO)[C@@H](O)[C@H]2O)c(=O)[nH]1 [8BrGuo, 8-bromoguanosine, reference compound]",Peak Direct anti-SRBC PFC/Culture,[1]; [4],2450 ± 325 PFC/Culture
same,Peak Direct anti-SRBC PFC/Culture,"[1]; Table 6, first study (note 4)",1167 ± 68 PFC/Culture
same,Peak Direct anti-SRBC PFC/Culture,"[1]; Table 6, second study (note 4)",633 ± 96 PFC/Culture
"Nc1nc2c(c(=O)[nH]1)n(Cc1ccccc1)c(=O)n2[C@@H]1O[C@H](CO)[C@@H](O)[C@H]1O [compound 24234, 7-Benzyl-8-oxoguanosine]",Peak Direct anti-SRBC PFC/Culture,[1]; [4],2004 PFC/Culture
same,Average 1 Log Plaque Values,[1],"110,777 ± 42,823 per micromole"
"C=CCn1c(=S)n(C2OC(COC(=O)c3ccccc3)C3OC(C)(C)OC32)c2nc(N)[nH]c(=O)c21.O (stereo not shown) [compound 23351, 7-(2-Propenyl)-5'-benzoyl-2',3'-O-isopropylideneguanosine-8-thioxoguanosinequarterhydrate]",Peak Concentration,"[1]; Table 6, murine system",10^-4 moles per liter
same,Peak Direct anti-SRBC PFC/Culture,"[1]; Table 6, study a",1431 ± 134 PFC/Culture
same,"adjuvanticity, in words",[1]; murine system,A similar result was obtained
"CC=CCn1c(=O)n([C@@H]2O[C@H](CO)[C@@H](O)[C@H]2O)c2nc(N)[nH]c(=O)c21 [compound 23679, 7-(2-Butenyl)-8-oxoguanosine]",Peak Direct anti-SRBC PFC/Culture,[2]; [5],3129 ± 252 PFC/Culture
same,Direct Anti-SRBC PFC/Culture,"[1]; Table 8, 1 × 10^-5 M",612 PFC/Culture
same,Average 1 Log Plaque Values,[1],"52,332 per micromole"
"C=CCn1c(=S)n([C@@H]2O[C@H](CO)[C@H]3OC(C)(C)O[C@H]32)c2nc(N)[nH]c(=O)c21 [compound 23083, 7-(2-Propenyl)-8-thioxo-2',3'-O-isopropylidineguanosine hemihydrate]",Peak Direct anti-SRBC PFC/Culture,[1]; [3],2150 ± 250 PFC/Culture
same,"adjuvanticity, in words",[1]; murine system,"activity substantially identical to that of 7a8oGuo, albeit at about one-half log higher concentration"
"Nc1nc2c(nc(SCC=Cc3ccccc3)n2[C@@H]2O[C@H](CO)[C@@H](O)[C@H]2O)c(=O)[nH]1 [compound 22359, 8-(Cinnamylmercapto)guanosine]",Direct Anti-SRBC PFC/Culture,"[1]; Table 1, C57BL/6J, 3 × 10^-4 M",2620 ± 100 PFC/Culture
same,Direct Anti-SRBC PFC/Culture,"[1]; Table 1, C57BL/6J, 10^-3 M",3110 ± 350 PFC/Culture
same,Direct Anti-SRBC PFC/Culture,"[1]; Table 1, CBA/CaJ, 3 × 10^-4 M",157 ± 7 PFC/Culture
same,Direct Anti-SRBC PFC/Culture,"[1]; Table 1, CBA/CaJ, 10^-3 M",653 ± 52 PFC/Culture
same,Direct Anti-SRBC PFC/Culture,"[1]; Table 1, CBA/CaJ, 10^-4 M",123 ± 21 PFC/Culture
same,[3H] TdR Uptake,murine spleen cells; 3 × 10^-4 M,1300 ± 80 cpm/culture
same,[3H] TdR Uptake,murine spleen cells; 10^-3 M,1700 ± 280 cpm/culture
same,[3H] TdR Uptake,murine spleen cells; 10^-4 M,1600 ± 90 cpm/culture
"C=CCn1c(=[Se])n([C@@H]2O[C@H](CO)[C@@H](O)[C@H]2O)c2nc(N)[nH]c(=O)c21 [compound 23369, 7-(2-Propenyl)-8-selenoxoguanosine]",Peak Direct anti-SRBC PFC/Culture,[2]; [5],2204 ± 370 PFC/Culture
same,Peak Direct anti-SRBC PFC/Culture,[1]; [4],2425 ± 229 PFC/Culture
